In patent US20130274338A1, “PHARMACEUTICAL COMPOSITIONS COMPRISING DGLA, 15-OHEPA, AND/OR 15-HETRE AND METHODS OF REDUCING SEBUM PRODUCTION USING SAME” (priority 2012, published 2013):

System: P. acnes
Experiment: Agar dilution method, growth of P. acnes and MIC, combinations with a fatty acid spike
Format: cell-based, Propionibacterium acnes
Design: key to Growth Index Plate 1 / Growth Index Plate 2 / Growth Index Plate 3 / Growth Index Avg: +++: confluent growth (comparable to control); ++: less confluent growth; +: marked reduction in growth to multiple tiny, single colonies; −: no growth present
Method: Several compounds including fatty acids such as DGLA, 15-OHEPA, and 15-HETrE were tested to determine their capacity to inhibit the growth of P. acnes. In an exemplary method, an agar dilution method was used to determine the minimum inhibitory concentration (MIC) of each tested compound. Briefly, the agar dilution method involved preparing a series of concentrations of each compound (e.g., nicotinamide, benzoyl peroxide, adapalene, metronidazole, DGLA, 15-OHEPA, and 15-HETrE) in a Reinforced Clostridial Agar (RCA) media that facilitates growth of P. acnes under anaerobic conditions. An inoculum of P. acnes was prepared by incubation of P. acnes for approximately seven days at 35-37° C. to achieve a ≧1.0 OD600 inoculum of P. acnes in RCM broth. A portion of this inoculum was then added to the surface of each plate as a 10 μL spot and incubated at 35-37° C. for 72 hours or more. Growth of P. acnes was then observed and compared to control plates in which no compound has been added, and positive inhibition plates prepared with erythromycin. […] The growth of P. acnes in the presence of nicotinamide, benzoyl peroxide, adapalene, metronidazole, DGLA, 15-OHEPA, and 15-HETrE was determined with varying concentrations of the compound (see, Table 2). Next, the MIC was determined as the concentration at which a marked reduction (+) occurs in the appearance of growth on the test plate (as per Clinical and Laboratory Standards Institute M11-A7).
The compounds tested singly in Example 1 were tested in combination with one another to determine the capacity of the combination to inhibit the growth of P. acnes. In an exemplary method, the MIC was determined for each of the combination as described in Example 1. Briefly, test combinations included DGLA with nicotinamide, benzoyl peroxide, adapalene, or metronidazole; 15-HETrE with nicotinamide, benzoyl peroxide, adapalene, or metronidazole; and 15-OHEPA with nicotinamide, benzoyl peroxide, adapalene, or metronidazole. The tables below show the growth of P. acnes in the presence of 0.4 or 1.0 mg/mL DGLA with varying concentrations of nicotinamide, benzoyl peroxide, adapalene, or metronidazole (Table 3); the growth of P. acnes in the presence of 0.01 or 0.05 mg/mL 15-HETrE with varying concentrations of nicotinamide, benzoyl peroxide, adapalene, or metronidazole (Table 5); and the growth of P. acnes in the presence of 0.5 or 0.1 mg/mL 15-OHEPA with varying concentrations of nicotinamide, benzoyl peroxide, adapalene, or metronidazole (Table 7).

[1] = compound at 0.2 mg/mL + 0.01 mg/mL 15-HETrE
[2] = compound at 0.2 mg/mL + 0.05 mg/mL 15-HETrE
[3] = compound at 0.2 mg/mL + 0.05 mg/mL 15-OHEPA
[4] = compound at 0.2 mg/mL + 0.1 mg/mL 15-OHEPA
[5] = compound at 0.2 mg/mL + 0.4 mg/mL dGLA
[6] = compound at 0.2 mg/mL + 1.0 mg/mL dGLA
[7] = compound at 0.4 mg/mL + 0.01 mg/mL 15-HETrE
[8] = compound at 0.4 mg/mL + 0.05 mg/mL 15-HETrE
[9] = compound at 0.4 mg/mL + 0.05 mg/mL 15-OHEPA
[10] = compound at 0.4 mg/mL + 0.1 mg/mL 15-OHEPA
[11] = compound at 0.4 mg/mL + 0.4 mg/mL dGLA
[12] = compound at 0.4 mg/mL + 1.0 mg/mL dGLA
[13] = compound at 0.6 mg/mL + 0.01 mg/mL 15-HETrE
[14] = compound at 0.6 mg/mL + 0.05 mg/mL 15-HETrE
[15] = compound at 0.6 mg/mL + 0.05 mg/mL 15-OHEPA
[16] = compound at 0.6 mg/mL + 0.1 mg/mL 15-OHEPA
[17] = compound at 0.6 mg/mL + 0.4 mg/mL dGLA
[18] = compound at 0.6 mg/mL + 1.0 mg/mL dGLA
[19] = compound at 0.8 mg/mL + 0.01 mg/mL 15-HETrE
[20] = compound at 0.8 mg/mL + 0.05 mg/mL 15-HETrE
[21] = compound at 0.8 mg/mL + 0.05 mg/mL 15-OHEPA
[22] = compound at 0.8 mg/mL + 0.1 mg/mL 15-OHEPA
[23] = compound at 0.8 mg/mL + 0.4 mg/mL dGLA
[24] = compound at 0.8 mg/mL + 1.0 mg/mL dGLA
[25] = compound at 1.0 mg/mL + 0.01 mg/mL 15-HETrE
[26] = compound at 1.0 mg/mL + 0.05 mg/mL 15-HETrE
[27] = compound at 1.0 mg/mL + 0.05 mg/mL 15-OHEPA
[28] = compound at 1.0 mg/mL + 0.1 mg/mL 15-OHEPA
[29] = compound at 1.0 mg/mL + 0.4 mg/mL dGLA
[30] = compound at 1.0 mg/mL + 1.0 mg/mL dGLA

SMILES: Cc1ncc([N+](=O)[O-])n1CCO [Metronidazole]
- Growth Index Avg [1]: +++
- Growth Index Plate 1 [1]: +++
- Growth Index Plate 2 [1]: +++
- Growth Index Plate 3 [1]: +++
- Growth Index Avg [2]: −
- Growth Index Plate 1 [2]: −
- Growth Index Plate 2 [2]: −
- Growth Index Plate 3 [2]: −
- Growth Index Avg [3]: +++
- Growth Index Plate 1 [3]: +++
- Growth Index Plate 2 [3]: +++
- Growth Index Plate 3 [3]: +++
- Growth Index Avg [4]: −
- Growth Index Plate 1 [4]: −
- Growth Index Plate 2 [4]: −
- Growth Index Plate 3 [4]: −
- Growth Index Avg [5]: +++
- Growth Index Plate 1 [5]: +++
- Growth Index Plate 2 [5]: +++
- Growth Index Plate 3 [5]: +++
- Growth Index Avg [6]: +++
- Growth Index Plate 1 [6]: +++
- Growth Index Plate 2 [6]: +++
- Growth Index Plate 3 [6]: +++
- Growth Index Avg [7]: +++
- Growth Index Plate 1 [7]: +++
- Growth Index Plate 2 [7]: +++
- Growth Index Plate 3 [7]: +++
- Growth Index Avg [8]: −
- Growth Index Plate 1 [8]: −
- Growth Index Plate 2 [8]: −
- Growth Index Plate 3 [8]: −
- Growth Index Avg [9]: +++
- Growth Index Plate 1 [9]: +++
- Growth Index Plate 2 [9]: +++
- Growth Index Plate 3 [9]: +++
- Growth Index Avg [10]: −
- Growth Index Plate 1 [10]: −
- Growth Index Plate 2 [10]: −
- Growth Index Plate 3 [10]: −
- Growth Index Avg [11]: +++
- Growth Index Plate 1 [11]: +++
- Growth Index Plate 2 [11]: +++
- Growth Index Plate 3 [11]: +++
- Growth Index Avg [12]: +++
- Growth Index Plate 1 [12]: +++
- Growth Index Plate 2 [12]: +++
- Growth Index Plate 3 [12]: +++
- Growth Index Avg [13]: +++
- Growth Index Plate 1 [13]: +++
- Growth Index Plate 2 [13]: +++
- Growth Index Plate 3 [13]: +++
- Growth Index Avg [14]: −
- Growth Index Plate 1 [14]: −
- Growth Index Plate 2 [14]: −
- Growth Index Plate 3 [14]: −
- Growth Index Avg [15]: +++
- Growth Index Plate 1 [15]: +++
- Growth Index Plate 2 [15]: +++
- Growth Index Plate 3 [15]: +++
- Growth Index Avg [16]: −
- Growth Index Plate 1 [16]: −
- Growth Index Plate 2 [16]: −
- Growth Index Plate 3 [16]: −
- Growth Index Avg [17]: +++
- Growth Index Plate 1 [17]: +++
- Growth Index Plate 2 [17]: +++
- Growth Index Plate 3 [17]: +++
- Growth Index Avg [18]: +++
- Growth Index Plate 1 [18]: +++
- Growth Index Plate 2 [18]: +++
- Growth Index Plate 3 [18]: +++
- Growth Index Avg [19]: +++
- Growth Index Plate 1 [19]: +++
- Growth Index Plate 2 [19]: +++
- Growth Index Plate 3 [19]: +++
- Growth Index Avg [20]: −
- Growth Index Plate 1 [20]: −
- Growth Index Plate 2 [20]: −
- Growth Index Plate 3 [20]: −
- Growth Index Avg [21]: +++
- Growth Index Plate 1 [21]: +++
- Growth Index Plate 2 [21]: +++
- Growth Index Plate 3 [21]: ++
- Growth Index Avg [22]: −
- Growth Index Plate 1 [22]: −
- Growth Index Plate 2 [22]: −
- Growth Index Plate 3 [22]: −
- Growth Index Avg [23]: ++
- Growth Index Plate 1 [23]: +++
- Growth Index Plate 2 [23]: ++
- Growth Index Plate 3 [23]: ++
- Growth Index Avg [24]: +++
- Growth Index Plate 1 [24]: +++
- Growth Index Plate 2 [24]: +++
- Growth Index Plate 3 [24]: ++
- Growth Index Avg [25]: +++
- Growth Index Plate 1 [25]: +++
- Growth Index Plate 2 [25]: +++
- Growth Index Plate 3 [25]: +++
- Growth Index Avg [26]: −
- Growth Index Plate 1 [26]: −
- Growth Index Plate 2 [26]: −
- Growth Index Plate 3 [26]: −
- Growth Index Avg [27]: +++
- Growth Index Plate 1 [27]: +++
- Growth Index Plate 2 [27]: ++
- Growth Index Plate 3 [27]: +++
- Growth Index Avg [28]: −
- Growth Index Plate 1 [28]: −
- Growth Index Plate 2 [28]: −
- Growth Index Plate 3 [28]: −
- Growth Index Avg [29]: ++
- Growth Index Plate 1 [29]: ++
- Growth Index Plate 2 [29]: ++
- Growth Index Plate 3 [29]: ++
- Growth Index Avg [30]: ++
- Growth Index Plate 1 [30]: ++
- Growth Index Plate 2 [30]: ++
- Growth Index Plate 3 [30]: ++
- growth of P. Acnes in combination with 15-HETrE, compared with 15-HETrE used alone (in combination with 15-HETrE): did not reduce the growth
- growth of P. Acnes in combination with 15-OHEPA, compared with 15 OHEPA used alone (in combination with 15-OHEPA): did not reduce the growth
- growth of P. Acnes in combination with DGLA, compared with DGLA used alone (in combination with DGLA): did not reduce the growth
